Data as given in ChEMBL document CHEMBL1153468, “Discovery of a novel protein kinase B inhibitor by structure-based virtual screening” (Bioorg Med Chem Lett, 2009).
Active and inactive are the calls of the source. No cut-off for these calls is given here.

Key:
[1] = target: T1, RAC-beta serine/threonine-protein kinase (Homo sapiens, UniProt P31751); experiment: Inhibition of AKT2 at 25 uM by FRET based assay
[2] = target: T1, RAC-beta serine/threonine-protein kinase; experiment: Inhibition of AKT2 at 50 uM by FRET based assay
[3] = target: RAC-gamma serine/threonine-protein kinase (Homo sapiens, UniProt Q9Y243); experiment: Inhibition of AKT3 by FRET based assay
RAC-gamma serine/threonine-protein kinase, sequence (Q9Y243 whole entry): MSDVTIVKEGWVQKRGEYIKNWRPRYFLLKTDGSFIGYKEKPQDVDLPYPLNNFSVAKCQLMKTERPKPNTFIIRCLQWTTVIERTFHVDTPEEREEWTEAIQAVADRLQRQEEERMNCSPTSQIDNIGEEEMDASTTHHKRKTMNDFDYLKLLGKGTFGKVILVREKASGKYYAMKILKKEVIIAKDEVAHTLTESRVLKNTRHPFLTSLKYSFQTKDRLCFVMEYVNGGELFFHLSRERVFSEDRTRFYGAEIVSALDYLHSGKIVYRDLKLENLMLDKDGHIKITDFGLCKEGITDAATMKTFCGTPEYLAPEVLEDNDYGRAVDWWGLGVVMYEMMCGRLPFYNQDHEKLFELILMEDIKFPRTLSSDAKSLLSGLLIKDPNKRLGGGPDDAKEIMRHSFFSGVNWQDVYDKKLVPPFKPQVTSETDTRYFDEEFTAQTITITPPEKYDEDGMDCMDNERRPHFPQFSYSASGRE

[4] = target: RAC-alpha serine/threonine-protein kinase (Homo sapiens, UniProt P31749); experiment: Inhibition of AKT1 by FRET based assay
RAC-alpha serine/threonine-protein kinase, sequence (P31749 whole entry): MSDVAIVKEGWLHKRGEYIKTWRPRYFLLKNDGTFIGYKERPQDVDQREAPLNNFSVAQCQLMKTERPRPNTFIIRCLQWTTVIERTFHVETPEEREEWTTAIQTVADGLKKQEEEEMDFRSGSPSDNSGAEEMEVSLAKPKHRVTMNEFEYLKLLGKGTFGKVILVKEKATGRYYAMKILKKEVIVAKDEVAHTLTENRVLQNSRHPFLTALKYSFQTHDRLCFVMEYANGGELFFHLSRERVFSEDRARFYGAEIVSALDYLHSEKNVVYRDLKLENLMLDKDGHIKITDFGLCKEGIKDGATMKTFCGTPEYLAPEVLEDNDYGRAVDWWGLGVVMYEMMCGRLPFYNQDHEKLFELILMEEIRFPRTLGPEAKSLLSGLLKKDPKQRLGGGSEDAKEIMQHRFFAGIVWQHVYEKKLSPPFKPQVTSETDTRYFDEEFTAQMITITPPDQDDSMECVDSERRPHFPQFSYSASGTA

[5] = target: T1, RAC-beta serine/threonine-protein kinase; experiment: Inhibition of AKT2 by FRET based assay
[6] = test system: MDA-MB-468; experiment: Cytotoxicity against human MDA-MB-468 cells with PTEN mutation and EGFR amplification after 12 hrs by MTT assay; type: functional, cell-based; conditions: MDA-MB-468, 12 h
[7] = test system: MDA-MB-453; experiment: Cytotoxicity against human MDA-MB-453 cells with PIK3CA mutation and HER2 amplification after 12 hrs by MTT assay; type: functional, cell-based; conditions: MDA-MB-453, 12 h

T1 sequence (P31751 whole entry): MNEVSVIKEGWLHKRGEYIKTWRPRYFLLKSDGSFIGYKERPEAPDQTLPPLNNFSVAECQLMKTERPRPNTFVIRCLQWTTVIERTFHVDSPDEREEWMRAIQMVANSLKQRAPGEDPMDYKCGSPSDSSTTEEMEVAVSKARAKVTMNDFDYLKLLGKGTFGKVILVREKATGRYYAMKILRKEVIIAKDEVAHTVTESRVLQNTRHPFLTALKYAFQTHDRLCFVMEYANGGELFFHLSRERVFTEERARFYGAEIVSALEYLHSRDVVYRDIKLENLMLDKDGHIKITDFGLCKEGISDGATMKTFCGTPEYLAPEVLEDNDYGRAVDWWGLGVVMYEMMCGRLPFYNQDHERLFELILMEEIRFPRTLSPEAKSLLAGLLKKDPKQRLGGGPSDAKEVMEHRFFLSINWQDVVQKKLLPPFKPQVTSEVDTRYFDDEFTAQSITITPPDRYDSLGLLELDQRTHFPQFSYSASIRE

SMILES	Activity [1]	Activity [2]	IC50 [3]	IC50 [4]	IC50 [5]	EC50 [6]	EC50 [7]
O=S(=O)(NCCNC/C=C/c1ccc(Br)cc1)c1cccc2cnccc12	inactive	inactive	–	–	–	–	–
Clc1ccc(C2(c3ccc(-c4cn[nH]c4)cc3)CCNCC2)cc1	inactive	inactive	–	–	–	–	–
O=C1COc2ccc(-c3cc(-c4ccccc4)cc(-c4ccc5oc(=O)[nH]c5c4)n3)cc2N1	–	–	4 µM	2.6 µM	1.5 µM	3.8 µM	10 µM
